As a reminder, the Ki is a dissociation constant, usually derived from enzyme kinetics or from competition with a known ligand.

The target in this assay is T1, EntE (Escherichia coli, UniProt P10378).
T1 sequence (P10378 1-536): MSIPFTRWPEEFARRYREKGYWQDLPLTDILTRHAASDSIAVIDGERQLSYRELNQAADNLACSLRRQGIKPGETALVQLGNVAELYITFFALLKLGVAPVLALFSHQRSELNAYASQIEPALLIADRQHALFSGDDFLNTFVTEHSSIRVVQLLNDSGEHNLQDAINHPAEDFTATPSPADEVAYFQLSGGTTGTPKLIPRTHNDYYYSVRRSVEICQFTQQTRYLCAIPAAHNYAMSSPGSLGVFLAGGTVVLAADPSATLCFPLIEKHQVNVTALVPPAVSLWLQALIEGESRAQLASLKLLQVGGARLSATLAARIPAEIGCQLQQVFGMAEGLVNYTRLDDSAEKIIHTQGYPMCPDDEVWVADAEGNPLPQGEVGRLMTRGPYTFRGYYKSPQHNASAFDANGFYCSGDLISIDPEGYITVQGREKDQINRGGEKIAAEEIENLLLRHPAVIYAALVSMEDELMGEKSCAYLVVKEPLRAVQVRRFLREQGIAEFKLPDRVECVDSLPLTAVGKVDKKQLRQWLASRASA
Nature of the assay: enzyme inhibition kinetics versus ATP. It is filed as biochemical.

Compound `Nc1ncnc2c1ncn2[C@@H]1O[C@H](COP(=O)(O)OP(=O)(O)OP(=O)(O)OP(=O)(O)OC[C@H]2O[C@@H](n3cnc4c(N)ncnc43)[C@H](O)[C@@H]2O)[C@@H](O)[C@H]1O` [Ap4A, P^1, P^3-diadenosine-5′-tetraphosphate] registered a Ki of 1200 ± 100 nM.

Source of the values: paper PMC2783875 (Biochemistry, 2009).
